Experimental data from patent US5972982A (priority 1997, dated 1999).
In brackets after ≈: the same amount, converted by molar mass.

How the values were obtained:
[1] = system: several DNA and RNA viruses; details: against several DNA and RNA viruses; cited from earlier work
[2] = system: Poliovirus Type III vaccine strain (ATCC VR 300); format: cell-based
[3] = system: Poliovirus Type III vaccine strain (ATCC VR 300); experiment: microbe, parasite or virus in culture; format: cell-based
[4] = system: Mycobacterium tuberculosis strain H37Rv; experiment: microbe, parasite or virus in culture; format: cell-based; details: read-out: MIC VERSUS H37Rv
Streptococcus pyogenes = experiment: microbe, parasite or virus in culture; details: 48 h
[5] = system: Buffalo Green Monkey Kidney Cells (ATCC CCL 81)
[6] = system: HEP 2 Cells (ATCC HB 8065); experiment: Antiviral assay of Respiratory Syncytial Virus: toxicity to uninfected cells; format: cell-based
Protocol: c. […] The cell count wells receive media only.
d. The cultures are incubated for 24 hr.
e. […] Scoring is as described above.

SMILES	broad spectrum antiviral activity [1]	VIRUS YIELD (PFU/mL) [3]	VIRUS YIELD FOLD-REDUCTION [3]	MIC [4]	MIC (Streptococcus pyogenes)	TOXICITY [5]	toxicity (in words) [5]	also measured
Nc1ncnc2c1ncn2C[C@H](O)CO [(S)-9-(2',3'-dihydroxypropyl)adenine]	broad spectrum antiviral activity							
Nc1ncnc2c1ncn2C[C@@H](CO)OCP(=O)(O)O [(S)-9-(3'-dihydroxy-2'-phosphonylmethoxypropyl)adenine]	broad spectrum antiviral activity							
CCCCCCCCCCCCCCCCCCOCC(CO)n1cncn1 (stereo not shown) [CPR 1004, 1-O-octadecyl-2-(1-triazolyl)-2-deoxy-glycerol]		7.0 × 10^5 PFU/mL	41.7 fold	12.5 µg/mL (≈ 31.6 µM)	1 µg/mL (≈ 2.53 µM)	N	not toxic at the concentrations tested	VIRAL CPE [2]: ±; activity at 100000 µM ([3]; Enterovirus C, read-out: VIRUS YIELD (YIELD)): 2.4%
CCCCCCCCCCCCCCCCCCOCC(CO)n1ccnc1 (stereo not shown) [CPR 1005, 1-O-octadecyl-2-(1-imidazolyl)-2-deoxy-glycerol]		2.8 × 10^3 PFU/mL	1.03×10^4 fold	6.25 µg/mL (≈ 15.8 µM)	10 µg/mL (≈ 25.3 µM)	N	not toxic at the concentrations tested	TOXICITY ([6]; Table 4, HEP 2 cells, 24 hr, final concentration 100 (mM)): N; toxicity (in words) ([6]; at the dosages tested): not toxic at the dosages tested
CCCCCCCCCCCCCCCCOCC(CO)n1ccnc1 (stereo not shown) [CPR 1104, 1-O-hexadecyl-2-(1-imidazolyl)-2-deoxy-glycerol]				1.6 µg/mL (≈ 4.36 µM)				
